Measurements taken from patent US20130065227A1, “METHODS OF INCREASING MACROPINOCYTOSIS IN CANCER CELLS” (priority 2010, published 2013).
{Fluor} = fluorophore: 5-carboxyfluorescein (FAM) or Alexa Fluor 488

Tests used:
Assay type in all cases: cell-based
[1] = tested on: DU145 cells; assay: Uptake of fluorophore-labeled oligonucleotides by flow cytometry
Method: FIG. 1 are graphs showing that AS1411 cell internalization is an active process. Cells were plated 18 h before uptake analysis. After incubation as described, cells were washed with ice-cold PBS, incubated with 1 μg/ml 7-AAD, harvested and resuspended in 1% paraformaldehyde containing 2 μg/ml actinomycin D, then analyzed by flow cytometry. (Panel A) DU145 cells were incubated at 37° C. with fresh complete DMEM medium containing 10 μM FL-AS1411 (black line) or 10 μM FL-CRO (gray line) for the time indicated. (Panel B) DU145 cells were incubated for 2 h at 37° C. in complete or serum-free DMEM medium containing 10 μM FL-AS1411, or 10 μM FL-CRO, or no oligonucleotide. (Panel C) Various cell lines were incubated with 10 μM FL-AS1411 (black outline histogram), 10 μM FL-CRO (gray outline histogram) or without DNA (solid gray histogram) at 37° C. or 4° C. for 2 h. All experiments were repeated at least three times. Data are mean of three independent samples; bars, SE; *(p<0.05).
FIG. 2 are graphs showing that AS1411 is internalized by different endocytic mechanisms in DU145 cancer cells and in non-malignant Hs27 cells. DU145 or Hs27 cells were plated 18 h before uptake analysis. Cells were pre-treated as described with inhibitor (gray histogram) or the corresponding vehicle control (black histogram) before addition of 10 μM FL-AS1411 and incubation at 37° C. for 2 h. After incubation, cells were harvested and analyzed by flow cytometry. Pre-treatment conditions were at 37° C. with: (Panel A) 5 μM Cytochalasin D for 30 min; (Panel B) 80 μM Dynasore for 30 min; or (Panel C) 3 mM amiloride for 1 h. All experiments were repeated at least three times and representative data are shown. Solid gray histograms represent background autofluorescence of unstained cells.
DU145 cells were transfected for 48 h without siRNA (mock, M), or with 30 nM of one of three different nucleolin siRNAs (NCL1, NCL2, NCL3) or a control siRNA (scramble, S), or contransfected with 10 nM of each nucleolin siRNAs (mix). (Panel A) Cells were lysed and total cell lyses were analyzed by Western blotting using the antibodies shown. (Panel B) Cell-surface proteins from intact transfected DU145 cells were labeled covalently with membrane-impermeable biotinylating agent. Cells were lysed, then biotinylated plasma membrane proteins were captured with streptavidin-agarose beads and analyzed by blotting with anti-nucleolin antibody (upper panel). After stripping, the membrane was reprobed with antibodies for a plasma membrane marker (anti-pan Cadherin) and a nuclear marker (anti-histone 3) to confirm the fractionation. Total lysate (Lys) was used as control. (Panel C) The medium of transfected cells was replaced by fresh complete DMEM medium containing no oligonucleotide (gray dashed histogram) or 10 μM FL-CRO (gray solid line histogram) or 10 μM FL-AS1411 (black solid line histogram) and incubated at 37° C. for 2 h. After incubation, cells were harvested and analyzed by flow cytometry.
DU145 cells were plated 18 hr before uptake analysis. Cell medium was changed with fresh complete DMEM medium containing different concentrations of FL-AS1411 (black line) or FL-CRO (gray line), and incubated at 37° C. for 2 hrs. After incubation, cells were harvested and analyzed by flow cytometry.
FIG. 9 are graphs showing the effects of inhibitors on various endocytic pathways. DU145 or Hs27 cells were plated 18 hr before uptake analysis. (Panel A) DU145 cells were pre-treated with dynamin inhibitor, […] Dynasore (black histogram) or DMSO (gray histogram) for 30 min at 37° C. After pre-treatment, cells were treated with […] transferrin conjugated with Alexa Fluor 488 for 30 min at 37° C. (Panel B) DU145 and Hs27 cells were pre-treated with 3 mM amiloride (black histogram) or vehicle (serum-free medium, gray histogram) for 1 h at 37° C. After pre-treatment, FL-CRO was added at a concentration of 10 μM and incubated at 37° C. for 2 h. After incubation, cells were harvested and analyzed by FACS. […]

[2] = tested on: DU145 cells; assay: Confocal microscopy localization and co-localization
Method: FIG. 3 are photographs showing that AS1411 co-localizes with the macropinocytic marker, dextran. DU145 or Hs27 cells were incubated with the reagents indicated, then washed and fixed. Nuclei were stained with DAPI (blue). The distribution of markers was visualized by confocal microscopy and fluorescent images were overlaid to determine co-localization as indicated by the yellow color. (Panel A) 10 μM AS1411 labeled with Alexa Fluor 488 (green) and 0.2 mg/ml dextran-10K, macropinocytic marker, labeled with Alexa Fluor 594 (red) for 2 h at 37° C. (Panel B) Experiments similar to those in Panel A but using FL-CRO in place of FL-AS1411. (Panel C) Cells incubated with 5 μg/ml transferrin labeled with Alexa Fluor 488 (green) and 0.2 mg/ml dextran-10K labeled with Alexa Fluor 594 (red) for 30 min at 37° C. (Panel D) DU145 cells incubated with 5 μg/ml transferrin labeled with Alexa Fluor 594 (red) and 10 μM AS1411 labeled with Alexa Fluor 488 (green) for 30 min at 37° C. Scale bars, 10 μm.
Cells (4×10^4) in fresh supplemented culture medium were plated on 18 mm diameter glass cover slips for 18 h. The media was removed and replaced with serum-free medium containing 10 μM oligodeoxynucleotide, dextran-10K, or transferrin and incubated as describe in the Description of the Drawings. After incubation, cells were washed 3 times with ice-cold PBS, fixed in 4% paraformaldehyde in PBS for 30 min at room temperature, and washed three times with PBS. After washing, the cover slips were mounted on glass slides with ProLong Antifade (Molecular Probes) according to the manufacturer's directions to inhibit photobleaching. Immunofluorescence was documented with an LSM 510 inverted confocal laser-scanning microscope (Carl Zeiss, Oberkochen, Germany) equipped with an Omnichrome argon-krypton laser. Images were obtained with a Zeiss Plan-Apo 63× oil immersion objective (1.4 NA).

[3] = tested on: most cancer cells tested; assay: Cell death on continuous exposure; details: 10 μM AS1411
Method: As described above, it is known that AS1411 can induce an unusual form of cell death in cancer cells. It was previously shown that G-rich oligonuclotides could induce cell death selectively in cancer cells compared to non-malignant cells, but it was noted that the morphology of the cells was inconsistent with death by apoptosis. The timing of cell death was also quite unusual, with continuous exposure (at 10 μM AS1411) for 7 days or more required to cause complete cell death for most cancer cells tested. […] However, cell death was also dose-dependent and occurred within hours in DU145 cells treated with 40 μM AS1411. Based on the various published reports, the cell death mechanism in U937 leukemia cells was investigated, and it was confirmed that cell death was not by apoptosis (FIG. 14 A-D). […] Although the same detailed studies of cell death have not been carried out in other cancer cell lines, it is consistently seen that AS1411-responsive cells die with a characteristic morphology (enlarged and vacuolated cells) without evidence of apoptosis.

Row | Substance | uptake compared with FL-AS1411 ([1]; 10 μM, 37° C., time course) | uptake compared with FL-AS1411 (confocal microscopy) ([2]; 10 μM, 2 h) | saturability of uptake (dose-response) ([1]; 37° C. for 2 hrs) | continuous exposure required to cause complete cell death [3] [days] | co-localization with transferrin ([2]; 5 μg/ml transferrin, 10 μM AS1411 labeled with Alexa Fluor 488, 30 min at 37° C.)
1 | 5′-Fluor-d(TTTCCTCCTCCTCCTTCTCCTCCTCCTCC) (DNA TTTCCTCCTCCTCCTTCTCCTCCTCCTCC; DNA, 5' {Fluor}, backbone and methylation of C not given here) [FL-CRO, reference compound] | consistently much lower than FL-AS1411 | much lower than FL-AS1411 | – | – | –
2 | 5′-d(GGTGGTGGTGGTTGTGGTGGTGGTGG) [AS1411] | – | – | did not appear to have saturable uptake | ≥ 7 | non-overlapping vesicles
